{"source": "patent US20230012560A1", "about": "“HEPATITIS B ANTIVIRAL AGENTS” (TAIGEN BIOTECHNOLOGY CO., LTD., priority 2019, published 2023)", "data": [{"test_system": "HBV (HepAD38 cells)", "experiment": "Real-Time PCR Assay (extracellular HBV DNA from HepAD38 culture supernatants)", "format": "cell-based", "conditions": "Hepatitis B virus, 120 h, compound treatment for 5 days without tetracycline, extracellular DNA in culture supernatant quantified by real-time PCR, read-out: EC50 (50% effective concentration)", "method": "HepAD38 cells were seeded and cultured on 96-well plates. After incubation for 2 days, cells were fed with compound-containing media without tetracycline. After compound treatment for 5 days, culture supernatants were collected. Extracellular DNA was then extracted using LabTurbo DNA mini kit, and quantified by real-time PCR.\nReal-time PCR was performed using an ABI QuantStudio 3 system in a 96-well optical plate format. The PCR mixture containing forward primer (5′-[…]-3′) (SEQ ID NO.1), reverse primer (5′-GGTGAGTGATTGGAGGTTG-3′) (SEQ ID NO.2) and Luna Universal qPCR Master Mix in a final volume of 24 μl was incubated at 95° C. for 10 min followed by 45 cycle of incubation at 95° C. for 10 s and 60° C. for 10 s. Regression analysis was performed using GraphPad Prism 5 to calculate the 50% effective concentration (EC50) values.", "units": {"EC50": "nM"}, "values": [{"compound": "CCNC(=O)C(=O)N1CCC(C)(NS(=O)(=O)c2cn(C)c(C(=O)Nc3cc(F)c(F)c(F)c3)c2F)CC1", "note": "[Compound 82]", "EC50": "100 to 300"}, {"compound": "CNC(=O)C(=O)N1CC[C@@H](NS(=O)(=O)c2cn(C3CC3)c(C(=O)Nc3ccc(F)c(F)c3)c2F)C1", "note": "[Compound 49]", "EC50": "< 100"}, {"compound": "CNC(=O)C(=O)N1CC[C@@H](NS(=O)(=O)c2c(F)c(C(=O)Nc3cc(F)c(F)c(F)c3)n(C)c2Cl)C1", "note": "[Compound 43]", "EC50": "< 100"}, {"compound": "CCCn1cc(S(=O)(=O)N[C@@H]2CCN(C(=O)C(=O)NC)C2)c(F)c1C(=O)Nc1ccc(F)c(F)c1", "note": "[Compound 51]", "EC50": "< 100"}, {"compound": "CNC(=O)C(=O)N1CC[C@@H](NS(=O)(=O)c2cn(C3CCCC3)c(C(=O)Nc3ccc(F)c(F)c3)c2F)C1", "note": "[Compound 53]", "EC50": "300 to 1000"}, {"compound": "CCNC(=O)C(=O)N1CC[C@@H](NS(=O)(=O)c2cn(C)c(C(=O)Nc3ccc(F)c(F)c3)c2F)[C@@H](F)C1", "note": "[Compound 96]", "EC50": "< 100"}, {"compound": "CCNC(=O)C(=O)N1CCC(NS(=O)(=O)c2cn(C)c(C(=O)Nc3cccc(C(F)(F)F)c3)c2F)CC1", "note": "[Compound 73]", "EC50": "< 100"}, {"compound": "CNS(=O)(=O)N1CC[C@@H](NS(=O)(=O)c2c(Cl)c(C(=O)Nc3cc(F)c(F)c(F)c3)n3c2CCC3)C1", "note": "[Compound 12]", "EC50": "< 100"}, {"compound": "CCCNC(=O)C(=O)N1CC[C@@H](NS(=O)(=O)c2cn(C)c(C(=O)Nc3cc(F)c(F)c(F)c3)c2F)C(F)(F)C1", "note": "[Compound 98]", "EC50": "< 100"}, {"compound": "CCNC(=O)C(=O)N1CC[C@@H](NS(=O)(=O)c2cn(C)c(C(=O)Nc3ccc(F)c(F)c3)c2F)C(F)(F)C1", "note": "[Compound 94]", "EC50": "< 100"}, {"compound": "CNS(=O)(=O)N1CC[C@@H](NS(=O)(=O)c2cn(C)c(C(=O)Nc3ccc(F)c(F)c3)c2F)C1", "note": "[Compound 5]", "EC50": "< 100"}, {"compound": "CCNC(=O)C(=O)N1CCN(S(=O)(=O)c2cn(C)c(C(=O)Nc3cc(F)c(F)c(F)c3)c2F)CC1", "note": "[Compound 65]", "EC50": "300 to 1000"}, {"compound": "CCNC(=O)C(=O)N1CCC(NS(=O)(=O)c2cn(C)c(C(=O)Nc3cc(F)c(F)c(F)c3)c2Cl)CC1C", "note": "(centres unmarked) [Compound 84]", "EC50": "< 100"}, {"compound": "CNS(=O)(=O)N1CC[C@@H](NS(=O)(=O)c2cn(C)c(C(=O)Nc3cc(F)c(F)c(F)c3)c2F)C1", "note": "[Compound 6]", "EC50": "< 100"}, {"compound": "Cn1cc(S(=O)(=O)N[C@@H]2CCN(C(=O)C(=O)NC3COC3)C2)c(F)c1C(=O)Nc1cc(F)c(F)c(F)c1", "note": "[Compound 36]", "EC50": "< 100"}, {"compound": "CCNC(=O)C(=O)N1CCC(NS(=O)(=O)c2cn(C)c(C(=O)Nc3cc(F)c(F)c(F)c3)c2Cl)C2(CC2)C1", "note": "(centres unmarked) [Compound 87]", "EC50": "< 100"}, {"compound": "Cn1cc(S(=O)(=O)NC2CCN(C(=O)C(=O)NC3(C)CC3)CC2(F)F)c(Cl)c1C(=O)Nc1cc(F)c(F)c(F)c1", "note": "(centres unmarked) [Compound 93]", "EC50": "< 100"}, {"compound": "Cn1cc(S(=O)(=O)N[C@@H]2CCN(C(=O)C(=O)NC3CC3)C2)c(F)c1C(=O)Nc1ccc(F)c(F)c1", "note": "[Compound 33]", "EC50": "< 100"}, {"compound": "CCNC(=O)C(=O)N[C@@H]1CCN(S(=O)(=O)c2cn(C)c(C(=O)Nc3cc(F)c(F)c(F)c3)c2F)C1", "note": "[Compound 61]", "EC50": "300 to 1000"}, {"compound": "CCNC(=O)C(=O)N1CC[C@@H](NS(=O)(=O)c2c(F)c(C(=O)Nc3cc(F)c(F)c(F)c3)n3c2CCC3)C1", "note": "[Compound 45]", "EC50": "< 100"}, {"compound": "CCNC(=O)C(=O)N1CCC2(NS(=O)(=O)c3cn(C)c(C(=O)Nc4cc(F)c(F)c(F)c4)c3F)CC2C1", "note": "(centres unmarked) [Compound 85]", "EC50": "< 100"}, {"compound": "C[C@@H](NC(=O)C(=O)N1CC[C@@H](NS(=O)(=O)c2cn(C)c(C(=O)Nc3cc(F)c(F)c(F)c3)c2F)C1)C(F)(F)F", "note": "[Compound 39]", "EC50": "< 100"}, {"compound": "CCn1cc(S(=O)(=O)N[C@@H]2CCCN(S(=O)(=O)NC)C2)c(F)c1C(=O)Nc1ccc(F)c(F)c1", "note": "[Compound 22]", "EC50": "< 100"}]}]}
